Source: the supplement of paper PMC10307832

Columns and labels:
Test in all cases: relative viability (nuclei count vs DMSO), 5 days (fraction); higher = more cells survive
Bortezomib + Phenformin = compound: CC(C)C[C@H](NC(=O)[C@H](Cc1ccccc1)NC(=O)c1cnccn1)B(O)O [Bortezomib] + N=C(N)NC(=N)NCCc1ccccc1 [Phenformin] (partner 250 µM)
In short: (§1)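 Relative viability divides the nuclei count in treated wells by that in vehicle wells. Lung cancer cell lines were seeded in 1536-well plates, dosed by pin tool the next day, and fixed and stained after 5 days in one step with final 0.05% Triton X-100, 1% formaldehyde and 1 ug/ml Hoechst. Dosing was a single drug or a fixed anchor-drug dose plus five library-drug doses (not always all listed) in √10 steps, and values are medians of duplicate plates imaged at 4×.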

[1] = compound: CC1=CC(=NN1)NC2=CC(=NC(=N2)/C=C/C3=CC=CC=C3)N4CCN(CC4)C + CC(C)C[C@H](NC(=O)[C@H](Cc1ccccc1)NC(=O)c1cnccn1)B(O)O [Bortezomib] (partner 0.002 µM)
In short: as §1

Obatoclax + Palbociclib = compound: COC1=CC(c2cc3ccccc3[nH]2)=N/C1=C\c1[nH]c(C)cc1C [Obatoclax] + CC(=O)c1c(C)c2cnc(Nc3ccc(N4CCNCC4)cn3)nc2n(C2CCCC2)c1=O [Palbociclib] (partner 0.5 µM)
In short: as §1

Obatoclax + Crizotinib = compound: COC1=CC(c2cc3ccccc3[nH]2)=N/C1=C\c1[nH]c(C)cc1C [Obatoclax] + C[C@@H](Oc1cc(-c2cnn(C3CCNCC3)c2)cnc1N)c1c(Cl)ccc(F)c1Cl [Crizotinib] (partner 1 µM)
In short: as §1

Cell Line	relative viability (Bortezomib + Phenformin; first compound 0.0002 µM)	relative viability (Bortezomib + Phenformin; first compound 0.000632 µM)	relative viability (Bortezomib + Phenformin; first compound 0.002 µM)	relative viability (Bortezomib + Phenformin; first compound 0.006325 µM)	relative viability (Bortezomib + Phenformin; first compound 0.02 µM)	relative viability ([1]; first compound 0.08 µM)	relative viability ([1]; first compound 0.253 µM)	relative viability ([1]; first compound 0.8 µM)	relative viability ([1]; first compound 2.53 µM)	relative viability ([1]; first compound 8 µM)	relative viability (Obatoclax + Palbociclib; first compound 0.01 µM)	relative viability (Obatoclax + Palbociclib; first compound 0.03162 µM)	relative viability (Obatoclax + Palbociclib; first compound 0.1 µM)	relative viability (Obatoclax + Palbociclib; first compound 0.3162 µM)	relative viability (Obatoclax + Palbociclib; first compound 1 µM)	relative viability (Obatoclax + Crizotinib; first compound 0.01 µM)	relative viability (Obatoclax + Crizotinib; first compound 0.03162 µM)	relative viability (Obatoclax + Crizotinib; first compound 0.3162 µM)	relative viability (Obatoclax + Crizotinib; first compound 1 µM)	relative viability (Obatoclax + Crizotinib; first compound 0.1 µM)
LC-2-ad	0.686	0.507	0.557	0.19	0.146	0.938	1.03	0.602	0.289	0.0902	0.428	0.46	0.489	0.464	0.438	0.424	0.455	0.412	0.425	–
NCI-H596	0.737	0.474	0.828	0.267	0.211	1.2	1.01	0.756	0.616	0.268	–	–	–	–	–	0.987	0.898	0.655	0.565	0.946
NCI-H1437	0.385	0.28	0.278	0.129	0.133	0.621	0.554	0.656	0.247	0.0909	0.306	0.311	0.324	0.31	0.237	0.804	0.857	0.896	1.03	0.861
NCI-H727	0.542	0.475	0.548	0.301	0.178	0.841	0.586	0.867	0.463	0.255	0.608	0.618	0.779	0.62	0.646	0.828	0.792	0.87	0.605	0.832
PC-3 [JPC-3]	0.495	0.485	0.472	0.24	0.175	0.836	0.968	0.838	0.853	0.761	0.497	0.515	0.503	0.406	0.33	0.942	0.892	0.984	0.917	0.949
SW 1573	0.384	0.349	0.205	0.0918	0.0612	1.13	1.02	1.02	0.348	0.1	0.379	0.35	0.298	0.118	0.133	0.781	0.749	0.861	0.483	0.843
NCI-H2228	0.271	0.31	0.257	0.0882	0.0761	0.96	0.917	0.74	0.0986	0.0661	0.609	0.792	0.573	0.525	0.401	0.404	0.488	0.299	0.233	0.464
NCI-H1650	0.385	0.303	0.139	0.16	0.149	0.209	0.191	0.182	0.183	0.19	0.344	0.407	0.316	0.24	0.145	0.892	1.01	0.699	0.297	1.05
NCI-H1944	0.198	0.185	0.213	0.201	0.155	–	–	–	–	–	0.344	0.313	0.34	0.318	0.319	0.975	1.05	1.06	1.02	1.05
NCI-H1792	0.534	–	0.173	0.0935	0.0823	0.863	0.999	0.919	0.84	0.0942	0.626	0.609	–	0.625	0.705	0.999	0.948	0.999	0.99	–
Calu-6	–	–	–	–	–	0.912	0.947	0.764	0.174	0.13	–	–	–	–	–	0.778	0.769	0.739	0.137	0.736
NCI-H1395	0.477	0.435	0.446	0.361	0.27	–	–	–	–	–	0.554	0.602	0.597	0.6	0.439	–	–	–	–	–
NCI-H2342	0.653	0.508	0.574	0.714	0.566	–	–	–	–	–	0.506	0.524	0.582	0.501	0.487	–	–	–	–	–
LK-2	0.416	0.282	0.514	0.131	0.149	–	–	–	–	–	0.661	0.728	0.764	–	0.825	0.243	0.179	0.231	0.257	0.236
NCI-H1299	–	–	–	–	–	1	1.05	1	0.854	0.211	–	–	–	–	–	0.918	0.944	0.921	0.492	0.959
NCI-H1703	–	–	–	–	–	0.261	0.319	0.236	0.174	0.117	–	–	–	–	–	0.762	0.697	0.348	0.311	0.394
NCI-H522	0.58	0.618	0.573	0.62	0.448	–	–	–	–	–	1.05	1.04	1.03	1.02	0.892	–	–	–	–	–
NCI-H1623	0.538	0.594	0.623	0.577	0.307	–	–	–	–	–	–	–	–	–	–	–	–	–	–	–
IA-LM	–	–	–	–	–	0.74	0.897	1.14	0.463	0.121	–	–	–	–	–	0.667	0.91	0.0663	0.0759	0.529
SK-MES-1	0.648	0.6	0.608	0.269	0.15	–	–	–	–	–	0.295	0.329	0.247	0.181	0.203	0.97	0.953	0.959	0.81	0.978
NCI-H1563	0.742	0.659	0.636	0.518	0.465	0.943	0.874	0.863	0.714	0.428	–	–	–	–	–	0.786	0.864	0.906	0.653	0.881
NCI-H358	0.316	0.305	0.354	0.0576	0.0696	–	–	–	–	–	0.13	0.127	0.142	0.114	0.117	0.46	0.57	0.374	0.352	0.592
NCI-H1648	–	–	–	–	–	–	–	–	–	–	0.303	0.258	0.28	0.275	0.246	–	–	–	–	–
